Where two headings read alike, the source gives them in different places.
Experiments:
[1] = test system: Pseudoalteromonas elyakovii; test: Bacterial growth assay (OD 630 nm); type: cell-based; conditions: 48 h incubation, 10–0.01 μg/mL tested, read-out: MIC against the growth of marine bacteria, P.e.
From the text: (§1) Cyprid larvae of B. improvisus were reared in a laboratory cultivating system at Tjärnö Marine Biological Laboratory, University of Gothenburg, Sweden, as previously described by Berntsson et al. ([2000]). Four pure, but non-axenic, marine microalgae (obtained from Algobank, Caen, France) and 10 marine bacterial strains were used (Table 1) as representative microfoulers. These strains represent fouling species encountered in both estuarine and marine environments (Moodie et al. [2017b]). The bacteria were grown at 26 °C in a marine medium, composed of 0.5% peptone (neutralized bacteriological peptone, Oxoid Ltd.) in filtered (Whatman 1001–270, pore size 11 μm) natural seawater. Microalgae were grown and maintained at 22 °C in F/2 medium.
(§2) Bacterial strain adhesion and growth were determined according to the methods of Thabard et al. ([2011]). Bacterial suspensions (100-μL aliquots, 2 × 10^8 colony forming units/mL) were aseptically added to the compound containing microplate wells (10–0.01 μg/mL), and the plates were incubated for 48 h at 26 °C. Media only was used as a blank. Bacterial growth was monitored spectroscopically at 630 nm. The minimal inhibitory concentration (MIC) for bacterial growth was defined as the lowest concentration which results in a decrease in OD. After 48-h incubation time, the bacterial adhesion assay was conducted by emptying the wells and rinsing with sterile seawater (100 μL) to remove non-attached cells, and air-drying at room temperature. The residual bacterial biofilm was stained with aqueous crystal violet (100 μL, 0.3% v/v) and the OD measured at 595 nm (Sonak and Bhosle [1995]). […] If inhibition was observed, toxicity tests were conducted. The well contents were transferred into a flask of fresh media, and growth was measured after 5 days of additional incubation. The mode of action was deemed biostatic if an increase in OD was measured at 595 nm (Moodie et al. [2017a]).

Vibrio carchariae [2] = test: Bacterial growth assay (OD 630 nm); type: cell-based; conditions: Vibrio harveyi, 48 h incubation, 10–0.01 μg/mL tested, read-out: MIC against the growth of marine bacteria, V.c.
From the text: as §1, §2

Vibrio harveyi [3] = test: Bacterial growth assay (OD 630 nm); type: cell-based; conditions: 48 h incubation, 10–0.01 μg/mL tested, read-out: MIC against the growth of marine bacteria, V.h.
From the text: as §1, §2

Roseobacter litoralis [4] = test: Bacterial growth assay (OD 630 nm); type: cell-based; conditions: 48 h incubation, 10–0.01 μg/mL tested, read-out: MIC against the growth of marine bacteria, R.l.
From the text: as §1, §2

Vibrio natriegens [5] = test: Bacterial growth assay (OD 630 nm); type: cell-based; conditions: 48 h incubation, 10–0.01 μg/mL tested, read-out: MIC against the growth of marine bacteria, V.n.
From the text: as §1, §2

Vibrio proteolyticus [6] = test: Bacterial growth assay (OD 630 nm); type: cell-based; conditions: 48 h incubation, 10–0.01 μg/mL tested, read-out: MIC against the growth of marine bacteria, V.p.
From the text: as §1, §2

Vibrio aestuarianus [7] = test: Bacterial growth assay (OD 630 nm); type: cell-based; conditions: 48 h incubation, 10–0.01 μg/mL tested, read-out: MIC against the growth of marine bacteria, V.a.
From the text: as §1, §2

Halomonas aquamarina [8] = test: Bacterial growth assay (OD 630 nm); type: cell-based; conditions: Vreelandella aquamarina, 48 h incubation, 10–0.01 μg/mL tested, read-out: MIC against the growth of marine bacteria, H.a.
From the text: as §1, §2

Shewanella putrefaciens [9] = test: Bacterial growth assay (OD 630 nm); type: cell-based; conditions: 48 h incubation, 10–0.01 μg/mL tested, read-out: MIC against the growth of marine bacteria, S.p.
From the text: as §1, §2

Cylindrotheca closterium [10] = test: Microalgal growth assay (chlorophyll a); type: cell-based; conditions: 120 h, 5 days incubation, 10–0.01 μg/mL tested, read-out: MIC against the growth (G) of microalgae, C. closterium
From the text: as §1
(§3) Microplates containing the compounds in ranging concentrations (10–0.01 μg/mL) were prepared from MeOH stock solutions as previously described (Trepos et al. [2014]; Moodie et al. [2017a]). Microalgal stock solutions were prepared using the chlorophyll analysis methodology of Chambers et al. ([2011]). The pretreated microplate wells were treated with 100 μL of the algal stock solutions (0.1 mg chlorophyll a/mL). The plates were then incubated for 5 days at 20 °C under constant light exposure (140 μmol m^−2 s^−1). Both microalgal adhesion and growth inhibition were measured. Growth was determined by analysis of liberated chlorophyll a after centrifugation and methanol addition. Chlorophyll a was quantified fluorometrically. MIC value for algal growth was defined as the lowest concentration yielding a decrease in chlorophyll a content. Microalgal adhesion was determined in an analogous manner where the non-attached algal cells were removed prior to methanol addition (100 μL), releasing chlorophyll a from the remaining algal biofilms. The MIC for adhesion was defined as the lowest compound concentration causing a reduction in […]. Toxicity experiments were performed in an analogous manner to those described for the bacterial assays.

Porphyridium purpureum [11] = test: Microalgal growth assay (chlorophyll a); type: cell-based; conditions: 120 h, 5 days incubation, 10–0.01 μg/mL tested, read-out: MIC against the growth (G) of microalgae, P. purpureum
From the text: as §1, §3

Halamphora coffeaeformis [12] = test: Microalgal growth assay (chlorophyll a); type: cell-based; conditions: Halamphora coffeiformis, 120 h, 5 days incubation, 10–0.01 μg/mL tested, read-out: MIC against the growth (G) of microalgae, H. coffeaformis
From the text: as §1, §3

[13] = test system: Pleurochrysis roscoffensis; test: Microalgal growth assay (chlorophyll a); type: cell-based; conditions: Chrysotila roscoffensis, 120 h, 5 days incubation, 10–0.01 μg/mL tested, read-out: MIC against the growth (G) of microalgae, P. roscoffensis
From the text: as §1, §3

[14] = test system: Balanus improvisus cyprid larvae; test: whole plant or invertebrate; type: in vivo
From the text: as §1
Stock solutions of compounds in DMSO were serially diluted in untreated polystyrene Petri dishes containing 10 mL of filtered (0.2 μm) seawater, affording final concentrations ranging from 0.1 to 10 μg/mL. Freshly molted balanide cyprids (18–22) were added to each Petri dish and incubated at ambient temperature (20–25 °C) for 5 days. Cyprid metamorphosis was assessed using a dissecting microscope where the numbers of juvenile settled, free-swimming, and dead cyprids were noted. Initial compound screening was conducted at 5 μg/mL, and full IC50 determination was performed only on compounds displaying > 50% inhibition at that concentration. The IC50 was defined as the concentration preventing 50% of the cyprid settlement on the Petri dish surface. Each concentration was replicated four times (n = 4), and dishes containing 0.1% of DMSO were used as negative controls. The commercial AF agent Sea-nine™ was employed as a positive control.

Vibrio carchariae [15] = test: Bacterial adhesion assay (crystal violet, OD 595 nm); type: cell-based; conditions: Vibrio harveyi, 48 h, read-out: MIC against the adhesion of marine bacteria, V.c.
From the text: as §1, §2

Vibrio harveyi [16] = test: as above; type: cell-based; conditions: 48 h, read-out: MIC against the adhesion of marine bacteria, V.h.
From the text: as §1, §2

Vibrio aestuarianus [17] = test: as above; type: cell-based; conditions: 48 h, read-out: MIC against the adhesion of marine bacteria, V.a.
From the text: as §1, §2

Halomonas aquamarina [18] = test: as above; type: cell-based; conditions: Vreelandella aquamarina, 48 h incubation, 10–0.01 μg/mL tested, read-out: MIC against the adhesion of marine bacteria, H.a.
From the text: as §1, §2

marine bacteria [19] = test: Bacterial adhesion assay, whole panel of ten strains; type: cell-based, 10 marine bacterial strains; conditions: tested up to 10 μg/mL, active = MIC of 10 μg/mL or below
From the text: as §1, §2

[20] = test system: Pseudoalteromonas elyakovii; conditions: ref Hanssen et al. ([2014]); cited from earlier work
Vibrio proteolyticus [21] = conditions: ref Hanssen et al. ([2014]); cited from earlier work
Halamphora coffeaeformis [22] = conditions: ref Hanssen et al. ([2014]); cited from earlier work
Shewanella putrefaciens [23] = conditions: ref Hanssen et al. ([2014]); cited from earlier work
Vibrio carchariae [24] = conditions: ref Hanssen et al. ([2014]); cited from earlier work
Roseobacter litoralis [25] = conditions: ref Hanssen et al. ([2014]); cited from earlier work
Cylindrotheca closterium [26] = conditions: ref Hanssen et al. ([2014]); cited from earlier work
Vibrio carchariae [27] = conditions: ref Hanssen et al. ([2014]); cited from earlier work; remark: listed apart in the source
Vibrio aestuarianus [28] = conditions: ref Hanssen et al. ([2014]); cited from earlier work
Halamphora coffeaeformis [29] = conditions: ref Hanssen et al. ([2014]); cited from earlier work; remark: listed apart in the source
Vibrio harveyi [30] = conditions: ref Hanssen et al. ([2014]); cited from earlier work
[31] = test system: Pleurochrysis roscoffensis; conditions: ref Hanssen et al. ([2014]); cited from earlier work
microalgae = test system: microalgae; design: method as in Hanssen et al. [2014]; conditions: ref Hanssen et al. [2014]; cited from earlier work
[32] = test system: Balanus improvisus cyprid larvae; conditions: B. improvisus, ref Hanssen et al. ([2014]), cited from earlier work
Halomonas aquamarina [33] = conditions: ref Hanssen et al. ([2014]); cited from earlier work
Vibrio aestuarianus [34] = conditions: ref Hanssen et al. ([2014]); cited from earlier work; remark: listed apart in the source
Halomonas aquamarina [35] = conditions: ref Hanssen et al. ([2014]); cited from earlier work; remark: listed apart in the source
marine bacteria [36] = conditions: panel of marine bacteria; ref Hanssen et al. [2014]; cited from earlier work
Cylindrotheca closterium [37] = conditions: ref Hanssen et al. ([2014]); cited from earlier work; remark: listed apart in the source
Porphyridium purpureum [38] = conditions: ref Hanssen et al. ([2014]); cited from earlier work
Vibrio natriegens [39] = conditions: ref Hanssen et al. ([2014]); cited from earlier work
Porphyridium purpureum [40] = conditions: ref Hanssen et al. ([2014]); cited from earlier work; remark: listed apart in the source
[41] = test system: Pleurochrysis roscoffensis; conditions: ref Hanssen et al. ([2014]); cited from earlier work; remark: listed apart in the source
Vibrio harveyi [42] = conditions: ref Hanssen et al. ([2014]); cited from earlier work; remark: listed apart in the source
Vibrio proteolyticus [43] = conditions: ref Hanssen et al. ([2014]); cited from earlier work; remark: listed apart in the source

COc1cc(CC(=NO)c2ccc(OC)c(OC)c2)ccc1O [Compound 14, 1-(3,4-dimethoxyphenyl)-1-hydroxyimino-2-(3’-methoxy-4’-hydroxyphenyl)-ethane]
4.8%: Toxicity (%) (dead cyprids) ([14]; Balanus improvisus, in vivo, 5 days, 5 μg/mL)
10 mg/L: MIC (Shewanella putrefaciens [9]) | MIC (Cylindrotheca closterium [10]) | MIC (Halamphora coffeaeformis [12]) | MIC [13] | MIC (Vibrio carchariae [15]) | MIC (Vibrio harveyi [16]) | MIC (Vibrio aestuarianus [17]) | MIC (Halomonas aquamarina [18])
displayed inhibitory activities: MIC / activity against the adhesion of all bacteria tested (marine bacteria [19])
1 mg/L: IC50 ([14]; Amphibalanus improvisus, 120 h, read-out: IC50 (cyprid settlement inhibition))
> 10 mg/L: MIC [1] | MIC (Vibrio carchariae [2]) | MIC (Vibrio harveyi [3]) | MIC (Roseobacter litoralis [4]) | MIC (Vibrio natriegens [5]) | MIC (Vibrio proteolyticus [6]) | MIC (Vibrio aestuarianus [7]) | MIC (Halomonas aquamarina [8]) | MIC (Porphyridium purpureum [11])

COc1c(Br)cc(C/C(=N\O)C(=O)NCCc2c[nH]c(=N)[nH]2)cc1Br [Ianthelline, ianthelline]
0.1 mg/L: MIC against the growth of marine bacteria, S.p. (Shewanella putrefaciens [23]) | MIC against the growth of marine bacteria, V.a. (Vibrio aestuarianus [28]) | MIC against the adhesion of marine bacteria, V.a. (Vibrio aestuarianus [34])
3.0 mg/L: IC50 (cyprid settlement inhibition) [32]
> 10 mg/L: MIC against the growth (G) of microalgae, H. coffeaformis (Halamphora coffeaeformis [22]) | MIC against the growth (G) of microalgae, C. closterium (Cylindrotheca closterium [26]) | MIC against the adhesion (A) of microalgae, H. coffeaformis (Halamphora coffeaeformis [29]) | MIC against the adhesion (A) of microalgae, P. roscoffensis [31] | MIC against the adhesion (A) of microalgae, C. closterium (Cylindrotheca closterium [37]) | MIC against the adhesion (A) of microalgae, P. purpureum (Porphyridium purpureum [38]) | MIC against the growth (G) of microalgae, P. purpureum (Porphyridium purpureum [40])
– (Not active at > 10 μg/mL): MIC against the adhesion of marine bacteria, V.c. (Vibrio carchariae [24]) | MIC against the growth of marine bacteria, V.c. (Vibrio carchariae [27]) | MIC against the adhesion of marine bacteria, H.a. (Halomonas aquamarina [33]) | MIC against the growth of marine bacteria, H.a. (Halomonas aquamarina [35]) | MIC against the growth of marine bacteria, V.n. (Vibrio natriegens [39]) | MIC against the adhesion of marine bacteria, V.h. (Vibrio harveyi [42]) | MIC against the adhesion of marine bacteria, V.p. (Vibrio proteolyticus [43])
1 mg/L: MIC against the growth of marine bacteria, P.e. [20] | MIC against the growth of marine bacteria, R.l. (Roseobacter litoralis [25])
not effective: Inhibition of bacterial adhesion, in general (marine bacteria [36])
10.0%: Toxicity (%) (dead cyprids) ([32]; reported at 5 μg/mL)
10 mg/L: MIC against the growth of marine bacteria, V.p. (Vibrio proteolyticus [21]) | MIC against the growth of marine bacteria, V.h. (Vibrio harveyi [30]) | MIC against the growth (G) of microalgae, P. roscoffensis [41]
poor antialgal activity: antialgal activity, in words (microalgae)

Reference: PMC5889410, “Design and Biological Evaluation of Antifouling Dihydrostilbene Oxime Hybrids” (Marine Biotechnology (New York, N.y.), 2018)
